Data from patent US8158809B2 (priority 2003, dated 2012).

Tested on: HCT116
Experiment: Cell colony formation assay
Type: cell-based
Conditions: 72 hours with drug, colonies counted after 7 days
Procedure: This example provides directions for growing cells and testing compounds of the invention for their effect on the growth of the cells. All cells were purchased from DCTDC Tumor Repository, NCI, NIH.
The cells were incubated in a CO2 incubator at 37° C. for 5 hours for attachment to the bottom of Petri dishes. Drugs were made fresh in medium at ten times the final concentration, and then 0.3 ml of this stock solution was added to the 2.7 ml of medium in the dish. The cells were then incubated with drugs for 72 hours at 37° C. At the end of the incubation the drug-containing media were decanted, the dishes were rinsed with 4 ml of Hank's Balance Salt Solution (HBSS), 5 ml of fresh medium was added, and the dishes were returned to the incubator for colony formation. The cell colonies were counted using colony counter after incubation for 7 days for HCT116 cells and PC-3 cells and 8 days for VM46 cells, respectively. Cell survival (%) was calculated, as shown in Table I below for HCT 116 cells.

SMILES	In Vitro Efficacy: Survival (%) of HCT116 (1 nM) [%]	In Vitro Efficacy: Survival (%) of HCT116 (10 nM) [%]	In Vitro Efficacy: Survival (%) of HCT116 (100 nM) [%]	In Vitro Efficacy: Survival (%) of HCT116 (1000 nM) [%]
CC[C@@]1(OC(=O)COc2ccc(C(=O)O[C@H]3c4cc5c(cc4[C@@H](c4cc(OC)c(OC)c(OC)c4)C4C(=O)OCC43)OCO5)cc2)C(=O)OCc2c1cc1n(c2=O)Cc2cc3ccccc3nc2-1 (stereo partly shown) [Compound 000801, Podophyllotoxin-4-O-ester of camptothecin-20-O-ester of 4-carboxylicphenoxyacetic acid]	99.83	0	0	0
COc1cc(C2c3cc4c(cc3C(OC(=O)C(NC(=O)OC(C)(C)C)C(C)c3ccccc3)C3COC(=O)C23)OCO4)cc(OC)c1OC [Compound 000307, Podophyllotoxin-4-O-ester of N—BOC-erythro-D-β-Methylphenylalanine]			93.49	0
COc1cc([C@@H]2c3cc4c(cc3[C@H](OC(=O)COc3ccc(Cl)cc3C)[C@H]3COC(=O)[C@H]23)OCO4)cc(OC)c1OC [Compound 000317, Podophyllotoxin-4-O-ester of 4-chloro-2-methylphenoxyacetic acid]		99.49	0	0
COc1cc([C@@H]2c3cc4c(cc3[C@H](OC(=O)c3cncc(C(=O)O[C@H]5c6cc7c(cc6[C@@H](c6cc(OC)c(OC)c(OC)c6)[C@H]6C(=O)OC[C@@H]65)OCO7)c3)[C@H]3COC(=O)[C@H]23)OCO4)cc(OC)c1OC [Compound 000330, Bis(Podophyllotoxin-4-O-ester) of 3,5-Pyridinedicarboxylic acid]		100	0	0
COc1cc(C2c3cc4c(cc3C(OC(=O)c3ccc5c(c3)C(=O)c3ccccc3C5=O)C3COC(=O)C23)OCO4)cc(OC)c1OC (stereo not shown) [Compound 000121, Podophyllotoxin-4-O-ester of anthraquinone-2-carboxylic acid]			94.03	0
COc1ccc(OCC(=O)OC2c3cc4c(cc3C(c3cc(OC)c(OC)c(OC)c3)C3C(=O)OCC23)OCO4)cc1 (stereo not shown) [Compound 000329, Podophyllotoxin-4-O-ester of 4-methoxyphenoxyacetic acid]		100	0	0
COc1cc([C@@H]2c3cc4c(cc3[C@@H](O[C@@H]3O[C@@H]5CO[C@@H](C)O[C@H]5[C@H](O)[C@H]3O)[C@H]3COC(=O)[C@H]23)OCO4)cc(OC)c1O [Etoposide, reference compound]		100		
COc1cc([C@@H]2c3cc4c(cc3[C@H](OC(=O)C3Cc5c([nH]c6ccccc56)CN3C(=O)OC(C)(C)C)[C@H]3COC(=O)[C@H]23)OCO4)cc(OC)c1OC (stereo partly drawn) [Compound 000301, Podophyllotoxin-4-O-ester of N—BOC-1,2,3,4-Tetrahydro-β-carboline-3-carboxylic acid]			84.08	0
COc1cc([C@@H]2c3cc4c(cc3[C@H](OC(=O)COc3ccc(Br)cc3)[C@H]3COC(=O)[C@H]23)OCO4)cc(OC)c1OC [Compound 000320, Podophyllotoxin-4-O-ester of 4-bromophenoxyacetic acid]		100	0	0
COc1cc(C2c3cc4c(cc3C(OC(=O)CCC(=O)O)C3COC(=O)C23)OCO4)cc(OC)c1OC (stereo not shown) [Compound 000201, Podophyllotoxin-4-O-ester of hemisuccinic acid]			93.24	0
